Source: PubChem BioAssay AID504544 (Sanford-Burnham Center for Chemical Genomics, 2011)
Activity calls are given as the source filed them. The rule behind the calls is not given here.

These compounds were tested on S. cerevisiae tim23-1 mutant growth, luminescence (assay: growth inhibition of tim23-1 mutant yeast, dose response, counter-screen for tim10-1 yeast inhibitor project, luminescence, uHTS hits (AID 504544)).

| Structure (SMILES) | IC50 |
| --- | --- |
| Cc1ccc(F)c([C@H]2[C@@H]3C=CCC[C@@]3(C)C(=O)N2Cc2ccccc2)c1 | 18.4 µM |
| COC(=O)c1c(N2C(=O)CC(Sc3ccccc3C(=O)O)C2=O)sc2c1CCCC2 (stereo not given) | 3.13 µM |
| Cc1nc(Nc2ccccc2)sc1-c1ccccc1 | 29 µM |
| CCOC(=O)c1cc(-c2cccs2)nc2c1c(C)nn2-c1ccccn1 | 17.3 µM |
| O=C(NNC(=S)Nc1ccc(Cl)cc1)c1ccccc1OC(F)F | 8.73 µM |
| COC(=O)C(C(C)=O)C1=C/C(=N\S(=O)(=O)c2ccc(C)cc2)c2ccccc2C1=O (stereo not given) | 9.86 µM |
| COc1ccc(-c2nncnn2)cc1 | 3.86 µM |
| O=[N+]([O-])c1ccccc1N/N=C/c1c[nH]c2ccccc12 | 15.7 µM |
| N/C(=N\OC(=O)CCC1CCCC1)c1cccc([N+](=O)[O-])c1 | 10.8 µM |
| Cc1cccc(NC(=S)N/N=C2/CCCCc3ccccc32)c1 | 7.44 µM |
| COc1ccc(C(=O)O/N=C(\N)c2ccc(Br)cc2)cc1 | 14.4 µM |
| Nc1c(C(=O)Nc2ccccc2)c2nc3ccccc3nc2n1CCCN1CCOCC1 | 12.5 µM |
| CN(C)CCCN(C(=O)c1cc2cc([N+](=O)[O-])ccc2s1)c1nc2cc3c(cc2s1)OCCO3 | 13.5 µM |
| Cc1ccc(NC(=O)c2ccc(Cl)c(N3C(=O)C=CC3=O)c2)cc1 | 4.13 µM |
| CCCOc1ccc(CN(CCC#N)C(=S)NC(=O)c2ccccc2)cc1 | 22.7 µM |
| CC1=C/C(=N\OS(=O)(=O)c2ccccc2)C(C)=CC1=O | < 0.2 µM |
| CCCCCCC(=O)N(O)C1CC(=O)N(c2ccc(C)cc2)C1=O (stereo not given) | 6.88 µM |
| Cc1ccccc1/C=C/C(=O)c1ccc([N+](=O)[O-])o1 | 1.5 µM |
| COc1ccc2sc(N(CCCN(C)C)C(=O)c3ccc(S(=O)(=O)N4CCCc5ccccc54)cc3)nc2c1 | 11.9 µM |
| COc1ccc(C(=O)Nc2ccc(-n3nncc3C(C)(C)C)cc2)cc1 | 8.87 µM |

| Structure (SMILES) | IC50 |
| --- | --- |
| CC(C)Nc1nnc(Sc2ccc(Cl)cc2[N+](=O)[O-])s1 | 2.66 µM |
| CC1=C/C(=N\OS(=O)(=O)c2ccccc2)C=CC1=O | 0.27 µM |
| CCCOc1ccc(N2C(=O)CC(N3CCC(O)(c4cccc(C(F)(F)F)c4)CC3)C2=O)cc1 (stereo not given) | 7.41 µM |
| COc1ccc(Br)cc1[C@H]1[C@H]2C=CC[C@@H](C)[C@@H]2C(=O)N1Cc1ccccc1 | 16.3 µM |
| Cc1cccc(NC(=O)c2ccc([N+](=O)[O-])s2)n1 | 1.55 µM |
| CCCCNC(=S)Nc1ccc(C(F)(F)F)cc1 | 12 µM |
| CCSc1nc2ccccc2n1C(=O)/C=C\c1ccc(OC)c(OC)c1 | 11.8 µM |
| CC(C)c1nnc(NC(=O)CCS(=O)(=O)c2nc(-c3cccs3)cc(C(F)(F)F)n2)s1 | 8.43 µM |
| COc1ccccc1N1C(=O)CC(Sc2n[nH]c(-c3cccc(C)c3)n2)C1=O (stereo not given) | 7.77 µM |
| COc1ccc(C(=O)O/N=C(\N)c2ccc(Cl)cc2)cc1 | 7.13 µM |
| COc1ccc(Cl)cc1NC(=S)NCCc1ccc(F)cc1 | 12.5 µM |
| CCOC(=O)c1ccc(N=c2ssnc2Cl)cc1 | 2.22 µM |
| Clc1ccc(CNc2nc(CN3CCOCC3)nc3scc(-c4ccccc4)c23)cc1 | 11.4 µM |
| O=C(NNC(=S)Nc1cccc(C(F)(F)F)c1)c1ccc(Cl)cc1Cl | 7.04 µM |
| CCCCNC(=S)N=Nc1c(O)[nH]c2ccccc12 | 4.92 µM |
| COc1ccc(/C=C/C(=O)c2ccccc2)cc1Cn1nnc2ccccc21 | 7.94 µM |
| O=C(/C=C/c1ccc2c(c1)OCCCO2)c1ccccc1O | 18.3 µM |
| O=S(=O)(CCN(CCS(=O)(=O)C(F)(F)F)CC1CCCO1)C(F)(F)F (stereo not given) | 11.2 µM |
| COc1ccc(C(=O)O/N=C(\N)c2ccccc2Cl)cc1OC | 12.1 µM |
| CCOc1ccccc1NC(=O)/C=C/C(N)=O | 7.36 µM |

| Structure (SMILES) | IC50 |
| --- | --- |
| CCCOc1ccccc1NC(=O)/C=C/C(N)=O | 2.34 µM |
| Cc1ccc(NC2=C/C(=N\S(=O)(=O)c3cccs3)c3ccccc3C2=O)c(C)c1 | 11.9 µM |
| Cc1ccc(NC(=O)c2cc(S(=O)(=O)NCCC3=CCCCC3)ccc2F)cc1 | 33.2 µM |
| CC(C)C(c1nnnn1C1CCCC1)N1CCCc2ccccc21 (stereo not given) | 13.7 µM |
| Cc1ccccc1OCC(=O)Nc1ccc(S(=O)(=O)N2CCCC2)cc1 | 7.95 µM |
| Fc1ccc(CNC(=S)Nc2cccc(C(F)(F)F)c2)cc1 | 12.3 µM |
| Clc1ccccc1OCc1nnc(-c2ccccc2Br)o1 | 32.9 µM |
| Cc1cc(C)c(CSc2ncc(-c3ccc([N+](=O)[O-])cc3)[nH]2)c(C)c1 | 17.4 µM |
| O=C(OCn1ncc(Br)c(Br)c1=O)c1ccccc1Cl | 2.07 µM |
| CC(C)CN(CC(C)C)C(=S)Nc1ccc(Cl)cc1 | 55.2 µM |
| O=C(c1cc(COc2ccc(F)cc2Cl)on1)N1CCN(c2cnccn2)CC1 | 5.45 µM |
| CC(C)NC(=S)N/N=C1\CCCCc2ccccc21 | 10.9 µM |
| COc1ccc(-n2cc(-c3ccccc3)c3c(=S)nc[nH]c32)cc1 | 38.4 µM |
| N/C(=N\OC(=O)CCC1CCCC1)c1ccccc1 | 29.6 µM |
| O=C1CC(Sc2nnnn2-c2ccccc2)C(=O)N1c1cccc(Cl)c1 (stereo not given) | 2.92 µM |
| COc1ccc(-c2cc(C3CC3)nc3sc(C#N)c(N)c23)cc1 | 6.84 µM |
| S=C(NCCCc1ccccc1)Nc1ccc(Cl)cc1 | 7.14 µM |
| Cc1ccc(NC(=S)/N=C(\N)Nc2nc(C)c3cc(C)ccc3n2)c(C)c1 | 17 µM |
| C/C(=N\NC(=S)NCc1ccccc1)c1ccc(Cl)s1 | 17.5 µM |
| NC(=NCCCCCCN=C(N)/N=C(\N)Nc1ccc(Cl)cc1)/N=C(\N)Nc1ccc(Cl)cc1 | > 100 µM (inactive) |
